The target in this assay is T1, NADPH oxidase 1 (Homo sapiens, UniProt Q9Y5S8).
T1 sequence (Q9Y5S8 whole entry): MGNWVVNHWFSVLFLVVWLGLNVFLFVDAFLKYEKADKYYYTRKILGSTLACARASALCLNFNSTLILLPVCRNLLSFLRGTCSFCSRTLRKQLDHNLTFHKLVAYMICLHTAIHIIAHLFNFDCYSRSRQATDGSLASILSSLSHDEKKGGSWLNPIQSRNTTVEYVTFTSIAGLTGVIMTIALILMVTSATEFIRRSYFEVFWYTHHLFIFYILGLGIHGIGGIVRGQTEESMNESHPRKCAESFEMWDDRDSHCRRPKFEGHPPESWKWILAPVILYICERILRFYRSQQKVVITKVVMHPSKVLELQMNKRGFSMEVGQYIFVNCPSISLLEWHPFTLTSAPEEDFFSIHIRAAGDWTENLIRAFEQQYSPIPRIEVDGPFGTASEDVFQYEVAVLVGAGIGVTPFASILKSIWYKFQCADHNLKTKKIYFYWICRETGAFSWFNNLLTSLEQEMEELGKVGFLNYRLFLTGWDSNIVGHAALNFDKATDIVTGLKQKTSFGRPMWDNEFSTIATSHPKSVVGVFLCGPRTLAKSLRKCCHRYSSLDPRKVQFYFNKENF
The assay is described as follows: HEK293 ROS counter-screen potency – cell-based, IC50, set 2, counter-screen for NOX1 inhibitor project, late-stage follow-up (AID 435002). (In general: Counterscreens check selectivity or assay interference.)

Consider `Oc1c(Br)cc(CN=Nc2c(Cl)cncc2Cl)cc1Br` [4-[[2-[3,5-bis(chloranyl)pyridin-4-yl]hydrazinyl]methylidene]-2,6-bis(bromanyl)cyclohexa-2,5-dien-1-one], for which the IC50 (usually the point on the concentration scale where inhibition reaches its midpoint) came out at 10 µM.

Compound `CN(C)c1ccc(CN=Nc2c(Cl)cncc2Cl)cc1` displayed an IC50 of 4 µM.

The values above are taken from BindingDB's records for doi:10.7270/Q2SX6BN0 (The Scripps Research Institute Molecular Screening Center, 2010).
